The values that follow come from the Biogen ADME set (Fang et al. 2023).

In brackets after ≈: the same amount, converted by molar mass.

The conditions of this data set: for aqueous solubility: pH 6.8.

What is called aqueous solubility is how much of the substance goes into solution per volume. Lower therefore signals little dissolved substance. In the case of `Cc1ccc(CNC(=O)c2cccnc2)n1C`, the MDR1-MDCK efflux ratio was 0.67; the intrinsic clearance, human liver microsomes was no more than 4.74 mL/min/kg; the intrinsic clearance, rat liver microsomes is no more than 10.7 mL/min/kg; the aqueous solubility was 40.6 µg/mL (≈ 177 µM).
On to `COCC(=O)Nc1ccc(NC(=O)Cc2cc(C)ccc2C)cc1`, for which the MDR1-MDCK efflux ratio turned out to be 1.2; the intrinsic clearance, human liver microsomes turned out to be 36.6 mL/min/kg; the intrinsic clearance, rat liver microsomes is 76.6 mL/min/kg.
`O=C(Nc1ccc(-c2nnn[nH]2)cc1)c1cc(COc2ccc(F)cc2)on1` showed an aqueous solubility of 16.4 µg/mL (≈ 43 µM).
As for `Cc1ccc2nc3c(c(C(=O)NCc4cnn(C)c4)c2c1)CCCC3`, the MDR1-MDCK efflux ratio is 17.8; the intrinsic clearance, human liver microsomes turned out to be 36.9 mL/min/kg; the intrinsic clearance, rat liver microsomes amounted to 74.1 mL/min/kg; the aqueous solubility is 56.3 µg/mL (≈ 168 µM).
In the same order, the values of `Cc1ccc(NC(=O)c2cccc(N(C)C)c2)cc1NC(=O)c1ccc(O)cc1` are 16.6, 45.4 mL/min/kg, 307 mL/min/kg and 3.3 µg/mL (≈ 8.47 µM).
`CSc1nccc(N2Cc3cnn(Cc4ccc(F)cc4)c3C2)n1`: the MDR1-MDCK efflux ratio worked out at 0.579; the intrinsic clearance, human liver microsomes is 141 mL/min/kg; the intrinsic clearance, rat liver microsomes was found to be 2590 mL/min/kg.
Consider `Fc1cncc(-c2cnc(NCc3ccc(Cl)c(F)c3)nc2)c1`, for which the MDR1-MDCK efflux ratio turned out to be 0.339; the intrinsic clearance, human liver microsomes came to 14.9 mL/min/kg; the intrinsic clearance, rat liver microsomes was found to be 104 mL/min/kg; the aqueous solubility turned out to be 3.2 µg/mL (≈ 9.62 µM).
As to `Cc1nc(-c2cnn(C)c2-c2ccc(C(F)(F)F)cn2)c2c(N3CCC3)ncnn12`, the MDR1-MDCK efflux ratio came to 12.2; the intrinsic clearance, human liver microsomes amounted to 54.3 mL/min/kg; the intrinsic clearance, rat liver microsomes was determined as 294 mL/min/kg; the aqueous solubility came to 65.1 µg/mL (≈ 157 µM).
In the case of `COc1cc(C=C2C(=O)NN(c3ccccc3)C2=O)ccc1OCC(N)=O`, the intrinsic clearance, human liver microsomes was found to be 158 mL/min/kg; the intrinsic clearance, rat liver microsomes is 277 mL/min/kg; the aqueous solubility came out at 29.7 µg/mL (≈ 80.7 µM).
In the case of `CCCn1cnnc1CN(C)Cc1ccc(C(F)(F)F)nc1`, the MDR1-MDCK efflux ratio was 23.6; the intrinsic clearance, human liver microsomes was no more than 4.74 mL/min/kg; the intrinsic clearance, rat liver microsomes is 29.5 mL/min/kg.
Take `Cc1cccc(-c2cccc(C(=O)NCCC3(O)CCCC3)c2)n1`: the MDR1-MDCK efflux ratio was 2.77; the intrinsic clearance, human liver microsomes worked out at 21.6 mL/min/kg; the intrinsic clearance, rat liver microsomes is 2910 mL/min/kg.
For `COC(=O)N1CCCN(C(=O)C(=O)Nc2cccc(C(C)C)c2)CC1`, the MDR1-MDCK efflux ratio turned out to be 1.07; the intrinsic clearance, human liver microsomes was 66.2 mL/min/kg; the intrinsic clearance, rat liver microsomes is 1220 mL/min/kg; the aqueous solubility was found to be 58.4 µg/mL (≈ 168 µM).
The corresponding values for `O=C(NCCc1nnc2n1CCC2)c1ccc2c(c1)CCC2` are 82.7, no more than 4.74 mL/min/kg, 45.1 mL/min/kg and 23.6 µg/mL (≈ 79.8 µM).
Turning to `O=C(CN1CCc2ccccc21)N1CCNC1=O`, the MDR1-MDCK efflux ratio came out at 0.72; the intrinsic clearance, human liver microsomes was no more than 4.74 mL/min/kg; the intrinsic clearance, rat liver microsomes amounted to 16.2 mL/min/kg; the aqueous solubility stood at 27.5 µg/mL (≈ 112 µM).
The corresponding values for `O=C(CN1CCc2ccccc21)N1CCC(c2nc3ccccc3[nH]2)CC1` are 56.1, 112 mL/min/kg, 1180 mL/min/kg and 52.5 µg/mL (≈ 146 µM).
On to `CCCNC(=O)C1(NCc2csnn2)CCCCC1`, for which the MDR1-MDCK efflux ratio is 2.87; the intrinsic clearance, human liver microsomes is 7.42 mL/min/kg; the intrinsic clearance, rat liver microsomes was 152 mL/min/kg.
As for `CN1CCN(c2oc(-c3cccc4ccccc34)nc2C#N)CC1`, the MDR1-MDCK efflux ratio was 0.363; the intrinsic clearance, human liver microsomes was found to be 94.3 mL/min/kg; the intrinsic clearance, rat liver microsomes was found to be 1600 mL/min/kg.
`COc1ncc(-c2cccc(N(C)C)c2)c(OC)n1` registered an intrinsic clearance, human liver microsomes of 193 mL/min/kg; an intrinsic clearance, rat liver microsomes of 2230 mL/min/kg; an aqueous solubility of 24.9 µg/mL (≈ 96 µM).
With `CN(Cc1cccc(C#N)c1)c1cnc2ccccc2n1`, the MDR1-MDCK efflux ratio amounted to 0.442; the intrinsic clearance, human liver microsomes is 75.3 mL/min/kg; the intrinsic clearance, rat liver microsomes amounted to 477 mL/min/kg; the aqueous solubility turned out to be 11.8 µg/mL (≈ 43.2 µM).
`NC(=O)c1ccc(N2CCCCC2)c(NC(=O)c2ncoc2-c2ccc3ccccc3c2)c1`: the MDR1-MDCK efflux ratio was determined as 0.519 and the aqueous solubility is 0.24 µg/mL (≈ 0.545 µM).
On to `Cn1ncc2c(N3CCN(c4ccc(Cl)c(Cl)c4)CC3)ncnc21`, for which the aqueous solubility came to 0.13 µg/mL (≈ 0.358 µM).
`O=C1Nc2ccccc2O[C@H]2C[C@@H]1N(Cc1cccnc1)C2`: the MDR1-MDCK efflux ratio stood at 17.7; the intrinsic clearance, human liver microsomes turned out to be 12.7 mL/min/kg; the intrinsic clearance, rat liver microsomes amounted to 281 mL/min/kg; the aqueous solubility is 94.3 µg/mL (≈ 319 µM).
Regarding `NC(=O)Cn1nnc(-c2ccccc2F)n1`, the aqueous solubility came out at 11.6 µg/mL (≈ 52.2 µM).
For the compound `N#Cc1c(F)cccc1Oc1cccnc1`, the MDR1-MDCK efflux ratio turned out to be 0.634; the intrinsic clearance, human liver microsomes is no more than 4.74 mL/min/kg; the intrinsic clearance, rat liver microsomes was determined as 30.1 mL/min/kg.
On to `Cc1cccc(OCCCNc2cc(Cn3c(C)nc4ccccc43)nc(N)n2)c1`, for which the MDR1-MDCK efflux ratio is 22.7; the intrinsic clearance, human liver microsomes was 535 mL/min/kg; the intrinsic clearance, rat liver microsomes came out at 2050 mL/min/kg; the aqueous solubility turned out to be 35.5 µg/mL (≈ 88.1 µM).
`N#CC1(NC(=O)Cc2cc3c(ccc4ccccc43)o2)CCOCC1` returned an intrinsic clearance, human liver microsomes of 87.3 mL/min/kg and an intrinsic clearance, rat liver microsomes of 705 mL/min/kg.
Regarding `c1cc2c(N3CCNCC3)nc(-c3ccnc(NC4CCCCC4)c3)cc2cn1`, the MDR1-MDCK efflux ratio was 26.5; the intrinsic clearance, human liver microsomes worked out at 68.7 mL/min/kg; the intrinsic clearance, rat liver microsomes amounted to 260 mL/min/kg; the aqueous solubility stood at 39.9 µg/mL (≈ 103 µM).
The compound `CCCCCCCCc1ccc(CC[C@](N)(CO)COP(=O)(O)O)cc1` returned an intrinsic clearance, human liver microsomes of 7.61 mL/min/kg.
`CN(C)CCn1ccc2cc(NC(=O)c3ccc(=O)[nH]n3)ccc21` registered an aqueous solubility of 53.5 µg/mL (≈ 164 µM).
`N=C1/C(=C\c2ccco2)C(=O)N=C2Sc3ccccc3N12` returned an aqueous solubility of 0.73 µg/mL (≈ 2.47 µM).
In the case of `Cc1ccc(C(=O)C(=O)NC2CCCC2)cc1`, the MDR1-MDCK efflux ratio is 0.471; the intrinsic clearance, human liver microsomes came to 104 mL/min/kg; the intrinsic clearance, rat liver microsomes is 465 mL/min/kg; the aqueous solubility turned out to be 30.2 µg/mL (≈ 131 µM).
Compound `CC(=O)N(CC(N)=O)c1ccc(C)cc1` came in with an intrinsic clearance, human liver microsomes of 5.04 mL/min/kg and an intrinsic clearance, rat liver microsomes of 42.8 mL/min/kg.
`CN(C(=O)c1cc(N2CCNC2=O)ccc1F)C1CCNC1` (configuration not stated): the MDR1-MDCK efflux ratio was 0.835; the fraction unbound, human plasma came out at 0.769; the intrinsic clearance, human liver microsomes is no more than 4.74 mL/min/kg.
As to `CC(C)c1ccc2c(c1)[C@H](NC(=O)Cn1ccnn1)CCC2`, the MDR1-MDCK efflux ratio is 3.4; the intrinsic clearance, human liver microsomes was 88.8 mL/min/kg; the intrinsic clearance, rat liver microsomes was 297 mL/min/kg; the aqueous solubility is 12.6 µg/mL (≈ 42.1 µM).
In the same order, the values of `CNC(=O)CN1CCCN(C(=O)c2c(C)nn(-c3ccccc3)c2Cl)CC1` are 82.1, no more than 4.74 mL/min/kg, 87.7 mL/min/kg and 49.9 µg/mL (≈ 128 µM).
For the compound `c1ccc(-c2ccc(Cn3ccnc3-c3cc4n(n3)CCCNC4)cc2)cc1`, the intrinsic clearance, human liver microsomes amounted to 14.7 mL/min/kg; the intrinsic clearance, rat liver microsomes stood at 399 mL/min/kg; the aqueous solubility came out at 4.59 µg/mL (≈ 12.4 µM).
On to `Cc1n[nH]c(-c2c(C)c3cc(F)ccc3n2C)n1`, for which the MDR1-MDCK efflux ratio was found to be 0.509; the intrinsic clearance, human liver microsomes stood at 88.2 mL/min/kg; the intrinsic clearance, rat liver microsomes came to 316 mL/min/kg; the aqueous solubility was found to be 23.5 µg/mL (≈ 96.2 µM).
With `O=C(Nc1ccc(S(=O)(=O)Nc2ccnn2-c2ccccc2)cc1)c1ccco1`, the MDR1-MDCK efflux ratio came to 48.8; the intrinsic clearance, human liver microsomes is 8.1 mL/min/kg; the intrinsic clearance, rat liver microsomes is 102 mL/min/kg; the aqueous solubility is 63.4 µg/mL (≈ 155 µM).
In the same order, the values of `CN1CCN(CCOc2ccccc2N)CC1` are 0.548, 8.03 mL/min/kg, 130 mL/min/kg and 38.1 µg/mL (≈ 162 µM).
Take `OC[C@@H](c1ccccc1)n1cc(CCc2ccccc2)nn1`: the MDR1-MDCK efflux ratio was found to be 0.889; the intrinsic clearance, human liver microsomes was determined as 24.7 mL/min/kg; the intrinsic clearance, rat liver microsomes stood at 694 mL/min/kg; the aqueous solubility amounted to 14 µg/mL (≈ 47.9 µM).
The corresponding values for `Cc1sc(C)c(C(=O)NC2(c3ccc(C(=O)O)cc3)CC2)c1Cc1ccc(C(F)(F)F)cc1` are 8.19, no more than 4.74 mL/min/kg, 31.2 mL/min/kg and 51.4 µg/mL (≈ 109 µM).
As to `c1ccc(CNc2nn3nnnc3c3ccccc23)cc1`, the MDR1-MDCK efflux ratio was 0.624 and the aqueous solubility came out at 0.1 µg/mL (≈ 0.362 µM).
For the compound `Cc1c(-c2c(F)cc(C(N)=O)c3[nH]c4c(c23)CC[C@H](C(C)(C)O)C4)cccc1-n1c(=O)c2cccc(F)c2n(C)c1=O`, the MDR1-MDCK efflux ratio is 3.4; the fraction unbound, human plasma was 0.0273; the fraction unbound, rat plasma turned out to be 0.0212; the intrinsic clearance, human liver microsomes was 11.4 mL/min/kg. Moreover, the intrinsic clearance, rat liver microsomes is 43.4 mL/min/kg and the aqueous solubility was 2.4 µg/mL (≈ 4.19 µM).
On to `COC(C)(C)CCNC(=O)CC1CC(C)(C)NC(C)(C)C1`, for which the MDR1-MDCK efflux ratio is 12.9; the intrinsic clearance, human liver microsomes is no more than 4.74 mL/min/kg; the intrinsic clearance, rat liver microsomes turned out to be 41.1 mL/min/kg.
Consider `OCCn1cc(-c2ccc3c(c2)CC/C3=N\O)c(-c2ccncc2)n1`, for which the MDR1-MDCK efflux ratio turned out to be 36.4; the intrinsic clearance, human liver microsomes came to 9.21 mL/min/kg; the intrinsic clearance, rat liver microsomes came to 123 mL/min/kg; the aqueous solubility came to 13.7 µg/mL (≈ 41 µM).
With `Cc1noc(C2CCN(C(=O)C3(c4cccc(F)c4)CCC3)CC2)n1`, the MDR1-MDCK efflux ratio is 0.861; the intrinsic clearance, human liver microsomes was 54.1 mL/min/kg; the intrinsic clearance, rat liver microsomes amounted to 2450 mL/min/kg; the aqueous solubility worked out at 76.3 µg/mL (≈ 222 µM).
For `OCc1ccc(Cn2cc(-c3cc(F)ccc3-n3cccn3)nn2)cc1`, the MDR1-MDCK efflux ratio turned out to be 2.09; the intrinsic clearance, human liver microsomes turned out to be 15.5 mL/min/kg; the intrinsic clearance, rat liver microsomes was 114 mL/min/kg; the aqueous solubility came to 34.5 µg/mL (≈ 98.9 µM).
